Where two headings read alike, the source gives them in different places.
Experiments:
[1] = biological target: T1, Gce (germ cell-expressed) (Drosophila melanogaster, UniProt Q9VXW7); assay: competition radioligand binding against [3H]JH III, dextran-coated charcoal assay
T1 construct: amino acids 1–689, translated in vitro
T1 sequence (Q9VXW7 269-959): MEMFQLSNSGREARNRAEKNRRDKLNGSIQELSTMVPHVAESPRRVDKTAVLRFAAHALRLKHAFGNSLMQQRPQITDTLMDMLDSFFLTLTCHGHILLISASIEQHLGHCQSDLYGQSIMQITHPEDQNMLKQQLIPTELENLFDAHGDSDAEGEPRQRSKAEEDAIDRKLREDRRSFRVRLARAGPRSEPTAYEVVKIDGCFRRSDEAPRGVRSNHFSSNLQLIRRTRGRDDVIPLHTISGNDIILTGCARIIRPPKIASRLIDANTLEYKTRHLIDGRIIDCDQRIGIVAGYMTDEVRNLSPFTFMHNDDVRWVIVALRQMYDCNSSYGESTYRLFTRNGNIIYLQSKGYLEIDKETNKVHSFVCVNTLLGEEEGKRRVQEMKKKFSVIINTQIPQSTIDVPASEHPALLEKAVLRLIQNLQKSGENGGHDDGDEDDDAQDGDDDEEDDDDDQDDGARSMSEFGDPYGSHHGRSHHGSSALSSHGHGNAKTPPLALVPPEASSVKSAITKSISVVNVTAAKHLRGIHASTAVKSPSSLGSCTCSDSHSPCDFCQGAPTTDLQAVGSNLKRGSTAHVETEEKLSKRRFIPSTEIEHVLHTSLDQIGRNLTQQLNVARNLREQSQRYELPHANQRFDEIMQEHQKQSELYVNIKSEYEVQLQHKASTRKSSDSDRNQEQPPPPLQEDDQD

[2] = biological target: T1, Gce (germ cell-expressed); assay: [3H]JH III radioligand saturation binding, dextran-coated charcoal assay
[3] = biological target: T2, Met (Methoprene-tolerant) (Drosophila melanogaster, UniProt Q9VYW2); assay: JHRE-luc reporter in S2 cells with endogenous Met and Gce depleted; pocket mutants inactive; type: cell-based
T2 construct: amino acids 1–716, FLAG-tagged, expressed in S2 cells
T2 sequence (Q9VYW2 1-716): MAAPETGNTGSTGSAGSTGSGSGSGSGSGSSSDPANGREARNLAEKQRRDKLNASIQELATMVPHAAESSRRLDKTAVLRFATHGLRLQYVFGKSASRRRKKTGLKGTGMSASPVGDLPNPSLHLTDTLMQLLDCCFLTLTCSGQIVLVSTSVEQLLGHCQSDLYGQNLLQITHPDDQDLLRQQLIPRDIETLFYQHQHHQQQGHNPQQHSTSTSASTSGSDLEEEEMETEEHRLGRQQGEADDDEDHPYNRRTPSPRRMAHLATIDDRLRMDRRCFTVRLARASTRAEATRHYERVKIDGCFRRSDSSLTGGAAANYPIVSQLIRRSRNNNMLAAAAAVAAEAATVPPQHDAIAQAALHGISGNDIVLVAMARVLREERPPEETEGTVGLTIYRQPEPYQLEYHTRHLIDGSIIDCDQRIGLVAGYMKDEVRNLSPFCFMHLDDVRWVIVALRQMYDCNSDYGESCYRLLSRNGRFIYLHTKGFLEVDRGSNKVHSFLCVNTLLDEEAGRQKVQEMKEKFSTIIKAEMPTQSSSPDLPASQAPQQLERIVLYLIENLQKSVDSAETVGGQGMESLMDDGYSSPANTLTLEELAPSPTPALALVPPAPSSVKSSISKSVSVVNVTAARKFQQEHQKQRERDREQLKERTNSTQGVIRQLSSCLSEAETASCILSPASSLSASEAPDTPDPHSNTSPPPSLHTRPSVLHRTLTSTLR

Row | Compound | Ki [1] [nM] | Ki ([1]; read-out: Ki) [nM] | further results
1 | CC(COc1ccc(Oc2ccccc2)cc1)Oc1ccccn1 (stereo not drawn) [pyriproxyfen] | 5.7 ± 2.8 |  | 
2 | COC(=O)/C=C(\C)CC/C=C(\C)CCC1OC1(C)C (racemic) [JH III] |  |  | Kd [2]: 19.3 ± 4.5 nM; JHRE-luc reporter activity [3]: Like Gce, Met but not its mutated versions, mediated induction of JHRE-luc by JH III (Fig 3C)
3 | COC(C)(C)CCC[C@H](C)C/C=C/C(C)=C/C(=O)OC(C)C (racemic) [methoprene] | 45.8 ± 28.9 |  | 
4 | CC(C)=CCC/C(C)=C/CC/C(C)=C/CO [farnesol] |  | 8100 ± 2400 | 
5 | COC(=O)/C=C(\C)CC/C=C(\C)CCC=C(C)C [methyl farnesoate] |  | 87.9 ± 22.2 | 

Source: PMC4498814, “Genetic Evidence for Function of the bHLH-PAS Protein Gce/Met As a Juvenile Hormone Receptor” (PLoS Genetics, 2015)
